The text below walks through data of ChEMBL document CHEMBL4321798, “Old but Gold: Tracking the New Guise of Histone Deacetylase 6 (HDAC6) Enzyme as a Biomarker and Therapeutic Target in Rare Diseases” (J Med Chem, 2020).

Assay [1] concerns the target T1, Protein deacetylase HDAC6 (Homo sapiens, UniProt Q9UBN7).
T1 sequence (Q9UBN7 whole entry): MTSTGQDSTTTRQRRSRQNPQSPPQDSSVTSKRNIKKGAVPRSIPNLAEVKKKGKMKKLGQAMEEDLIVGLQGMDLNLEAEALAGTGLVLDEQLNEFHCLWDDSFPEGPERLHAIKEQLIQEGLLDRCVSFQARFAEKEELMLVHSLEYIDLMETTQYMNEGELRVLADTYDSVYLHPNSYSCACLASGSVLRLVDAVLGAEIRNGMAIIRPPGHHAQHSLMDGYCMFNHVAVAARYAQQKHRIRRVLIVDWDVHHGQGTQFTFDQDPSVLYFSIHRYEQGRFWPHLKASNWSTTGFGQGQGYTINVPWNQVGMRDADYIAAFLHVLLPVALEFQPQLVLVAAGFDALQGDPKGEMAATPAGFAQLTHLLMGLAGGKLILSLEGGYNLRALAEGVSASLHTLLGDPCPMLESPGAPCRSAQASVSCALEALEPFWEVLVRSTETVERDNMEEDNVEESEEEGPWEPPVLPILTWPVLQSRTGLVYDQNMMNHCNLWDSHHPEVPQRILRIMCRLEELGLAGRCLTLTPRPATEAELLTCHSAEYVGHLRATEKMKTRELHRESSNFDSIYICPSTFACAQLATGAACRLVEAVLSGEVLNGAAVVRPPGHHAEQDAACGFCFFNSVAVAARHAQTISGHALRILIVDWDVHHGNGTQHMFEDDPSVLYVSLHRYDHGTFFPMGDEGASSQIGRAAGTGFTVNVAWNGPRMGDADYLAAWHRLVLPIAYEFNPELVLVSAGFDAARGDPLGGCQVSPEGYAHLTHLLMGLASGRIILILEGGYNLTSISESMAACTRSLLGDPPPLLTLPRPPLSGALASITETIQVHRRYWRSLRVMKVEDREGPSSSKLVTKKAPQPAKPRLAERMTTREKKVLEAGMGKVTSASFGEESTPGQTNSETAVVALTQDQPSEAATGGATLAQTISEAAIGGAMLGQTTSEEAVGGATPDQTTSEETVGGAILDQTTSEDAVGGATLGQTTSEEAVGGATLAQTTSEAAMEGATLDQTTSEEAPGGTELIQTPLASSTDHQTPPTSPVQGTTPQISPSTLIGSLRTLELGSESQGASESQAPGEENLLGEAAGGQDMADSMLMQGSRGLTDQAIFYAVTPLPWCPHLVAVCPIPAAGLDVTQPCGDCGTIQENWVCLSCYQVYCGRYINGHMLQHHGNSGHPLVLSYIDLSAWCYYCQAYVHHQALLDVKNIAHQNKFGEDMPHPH
The assay can be described thus: Inhibition of HADC6 (unknown origin).

The next assay has as its target Histone deacetylase 1 (Homo sapiens, UniProt Q13547). The assay can be described thus: Inhibition of HADC1 (unknown origin).
Assay [2] is described as follows: Inhibition of maize HD2. The arrangement: species or system Zea mays.
The nature of assay [3]: Inhibition of maize HD1-A. The arrangement: species or system Zea mays.

The structures appear in SMILES notation.

Chain of Histone deacetylase 1 (Q13547 whole entry): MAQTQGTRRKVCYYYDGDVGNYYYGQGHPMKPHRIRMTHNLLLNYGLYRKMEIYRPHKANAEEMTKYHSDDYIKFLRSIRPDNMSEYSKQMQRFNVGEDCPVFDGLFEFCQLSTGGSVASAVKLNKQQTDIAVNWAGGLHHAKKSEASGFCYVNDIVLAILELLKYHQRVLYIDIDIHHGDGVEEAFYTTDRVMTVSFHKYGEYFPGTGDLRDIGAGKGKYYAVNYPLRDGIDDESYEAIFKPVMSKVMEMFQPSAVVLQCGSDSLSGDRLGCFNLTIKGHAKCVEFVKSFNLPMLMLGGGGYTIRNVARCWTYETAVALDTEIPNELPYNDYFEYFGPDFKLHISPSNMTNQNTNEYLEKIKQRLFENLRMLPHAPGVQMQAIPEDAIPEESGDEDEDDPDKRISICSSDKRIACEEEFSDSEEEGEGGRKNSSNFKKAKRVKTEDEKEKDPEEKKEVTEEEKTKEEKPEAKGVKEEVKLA

On to `CC(C)[C@H]1NC(=O)[C@H]2CSSCC/C=C/[C@H](CC(=O)N[C@H](C)C(=O)N2)OC(=O)C[C@@H]1O` [OBP-801], for which the IC50 in assay [1] is 1600 nM; against Histone deacetylase 1, 3.3 nM.

On Histone deacetylase 1, `CCCC(CCC)C(=O)O` [VALPROIC ACID] registered an IC50 of 40000 nM. This counts as double-digit micromolar.

Consider `CN(C)c1ccc(C(=O)NCCCCCCC(=O)NO)cc1`, for which, in assay [2], the IC50 came to 100 nM.

On to `Cn1cc(/C=C/C(=O)c2cccc(F)c2)cc1/C=C/C(=O)NO`, for which, in assay [3], the IC50 turned out to be 100 nM.

As for `Cc1nc2ccccc2n1Cc1ccc(C(=O)NO)cc1F`, the figures for the IC50 (in assay [1]; against Histone deacetylase 1) were 3 nM and 4320 nM, respectively.
